In patent publication US20060127400A1, “Activation of regulatory T cells by alpha-melanocyte stimulating hormone” (THE SCHEPENS EYE RESEARCH INSTITUTE, INC., priority 1999, published 2006):
No end group written: not given here.

Test system: CD3ζ
Assay: tyrosine phosphorylation of CD3ζ, immunoprecipitation and anti-phosphotyrosine immunoblot
Format: cell-based, mouse
Method: Immunoprecipitation and Immunoblotting. Enriched primed T cells (2×10^6 cells) in a 24 well Corning plate were TCR-stimulated with 2C11 in the presence of α-MSH (30 pg/ml) under serum-free conditions for 15 minutes. The T cells were collected, placed in a microcentrifuge tube and washed once with 10 mM Tris buffered saline (TBS) and lysed for 30 minutes in 100 μl of ice cold lysate buffer (10 mM TBS, 1% NP-40, 0.5% sodium deoxycholate, 0.1% SDS, 100 μg/ml phenylmethylsulfonyl fluoride (PMSF), 60 μg/ml Aprotinin, and 1 mM sodium orthovanadate). The cells were passed through a 21 gauge needles three times, and an additional 2 μl of 10 mg/ml PMSF was added. The tubes were incubated for an additional 30 minutes on ice and were centrifuged for 20 minutes, 4° C., 13,000×g. The supernatant was collected and used as total cellular lysate. The protein concentration was measured, and added to equal amounts of protein lysate were 20 μg/ml anti-CD3ζ antibody, or anti-CD3ε antibody plus rabbit anti-hamster IgG antibody and incubated overnight at 4° C. The rabbit anti-hamster IgG was needed for the CD3ε immunoprecipitation, since much of the CD3ε was bound by 2C11 a hamster anti-mouse […] and hamster antibody weakly binds protein-G. Protein-G sepharose beads (Pharmacia, Piscataway, N.J.) were added to the antibody containing lysates and incubated for 1 hour at room temperature with end over end agitation. The beads were centrifuged and washed 4 times with 10 mM TBS containing 0.5% sodium deoxycholate. After the final wash the beads were resuspended in 20 μl of distilled water and 20 μl non-reducing SDS Tris-glycine sample buffer (Novex, San Diego, Calif.), boiled for 5 minutes and applied into two wells (20 μl) of a 8-16% Tris-glycine polyacrylamide gel (Novex).
Following electrophoresis in a Novex Xcell II minicell and blot module, the proteins were transferred from the gel onto a nitrocellulose membrane (Novex) by electroblotting. The membrane was blocked with 1% BSA in 0.01 M TBS for 1 hour room temperature. The blocked membrane was placed in a sealable bag containing 5 ml of alkaline-phosphatase conjugated anti-phosphotyrosine antibody PY20 diluted 1/2000 in 1% BSA-TBS buffer. The membrane was incubated overnight at room temperature. The PY20 blotted membrane was washed 3 times with wash buffer containing 1% BSA-TBS and 0.05% Tween-20 and incubated with alkaline phosphatase substrate NBT-BCIP (Sigma Chemical) until bands appeared. The membrane was washed with distilled water. In parallel, some lanes on the membrane were immunoblotted with anti-CD3ζ antibody and alkaline phosphatase conjugated anti-mouse IgG (Sigma Chemical) to detect the relative mobility of CD3ζ protein. Membranes were digitally photographed and analyzed using NIH Image software to integrate the band intensities relative to band area minus background. […]
The enriched primed T cells (2×10^6 cells) were incubated with anti-CD3 in the presence of α-MSH (30 pg/ml) for 15 minutes. […] The immunoprecipitates were analyzed by non-reducing SDS-PAGE (on a 8-16% gradient gel), followed by transfer to a nitrocellulose filter and immunoblotting with anti-phosphotyrosine antibody: (1) Unstimulated primed T cells treated with α-MSH; (2) Unstimulated primed T cells incubated in media alone; (3) Enriched primed T cells TCR-stimulated in the absence of α-MSH; (4) Enriched primed T cells TCR-stimulated in the presence of α-MSH. […]

Substance: α-melanocyte stimulating hormone (SYSMEHFRWGKPV; not fully specified; ends and bridges not checked; UniProt P01189 138-150, looked up) [α-MSH, synthetic α-MSH (Peninsula Laboratories); thirteen-amino acid neuropeptide derived from POMC]
- increase in CD3ζ tyrosine phosphorylation (TCR-stimulated primed T cells, versus stimulated in the absence of α-MSH): 6.7 fold
- relative intensity of phosphotyrosine band, CD3ζ (TCR-stimulated primed T cells, α-MSH 30 pg/ml, 15 minutes (lane 4; without α-MSH 10)): 67
- overall level of tyrosine phosphorylation of CD3ζ (TCR-stimulated primed T cells, α-MSH 30 pg/ml, 15 minutes, Example III (FIG. 18A)): no significant change
- stimulation of tyrosine phosphorylation of CD3ζ dimers (unstimulated primed T cells): 4 fold
- relative intensity of phosphotyrosine band, CD3ζ (unstimulated primed T cells, α-MSH 30 pg/ml, 15 minutes (lane 1; media alone 1)): 4
